Results from patent US20260240837A1, “Compositions Reducing the Expression or Activity of C1 GALT1 for Treating Ewing Sarcoma” (University of Massachusetts Medical School, priority 2023, published 2026).
“Also recorded” adds a separate entry of the source. Residues, ends and D or L forms follow the SMILES beside them. *: point of attachment. Cbz = O=C(OCc1ccccc1)*

Tests used:
[1] = system: SMO; test: Immunoblot and qRT-PCR of SMO in A673 cells; format: cell-based, human; settings: 100 nM ITZ for 72 hours plus MG132 or BafA1, FIG. 7K
Method: (§1) Total RNA was isolated from cells using Trizol (Invitrogen, Cat #15596). cDNA was synthesized using Proto Script II reverse transcription kit (New England Biolabs (NEB), Ipswich, MA, Cat #E6560) and real-time PCR reactions were performed using Quant Studio 3 (Applied Biosystems by Thermo Fisher Scientific) using primer sequences listed in Table 2. Gene expression was normalized to that of GAPDH. A control without reverse transcription (no-RT control) was carried out in parallel to rule out the possibility of DNA contamination. The experiments were performed three independent times.
(§2) Cells extracts were prepared in radioimmunoprecipitation assay (RIPA) buffer (1% Triton-X100, 0.1% sodium dodecyl sulfate (SDS), 0.5% deoxycholic acid, 20 mM tris(hydroxymethyl)aminomethane (Tris), pH 7.5, 10% glycerol) containing 1× complete ethylenediaminetetraacetic acid (EDTA)-free protease inhibitor cocktail (Roche, Basel, Switzerland, Cat #11873580001) and 1 mM phenylmethylsulfonyl fluoride (PMSF). For the immunoblot in FIG. 7L, cells expressing FLAG-SMO (wild-type and mutants) were treated with 10 μM MG132 (Selleck Chemicals, Houston, TX, Cat #S2619; CAS No. 1211877-36-9) for 12 hours or 100 nM bafilomycin A1 (Selleck Chemicals, Cat #S1413; CAS No. 88899-55-2) for 6 hours. […]

[2] = system: FLAG-SMO (T55A) and FLAG-SMO (T500A); test: Immunoblot of FLAG-SMO mutants stably expressed in A673 cells; format: cell-based, human; settings: 10 μM MG132 for 12 hours or 100 nM bafilomycin A1 for 6 hours, FIG. 7L
From the text: To generate cell lines stably ectopically expressing EWSR1::FLI1 (also referred to as EWS-FLI1, EWS::FLI1, or EWSR1-FLI1), TC-71 or NIH 3T3 cells were transduced with the lentiviral expression plasmid pCDH-puro-EWS-FLI1 or, as a control, pCDH-CMV-MCS-EFla-Puro and cells were selected with puromycin for five days. NIH 3T3 cells stably expressing SMO were generated by transduction of pHAGE-SMO or, as a control, pHAGE puro. NIH 3T3 cells stably expressing C1GALT1 were generated by transduction of C1GALT1-expression plasmid EX-W0494-Lv120 or, as a control, EX-EGFP-Lv120. A673 cell lines stably expressing FLAG-tagged wild-type SMO, FLAG-SMO (T55A), or FLAG-SMO (T500A) used lentiviral plasmids synthesized by GenScript in the pGenLenti vector.
Cells extracts were prepared in radioimmunoprecipitation assay (RIPA) buffer (1% Triton-X100, 0.1% sodium dodecyl sulfate (SDS), 0.5% deoxycholic acid, 20 mM tris(hydroxymethyl)aminomethane (Tris), pH 7.5, 10% glycerol) containing 1× complete ethylenediaminetetraacetic acid (EDTA)-free protease inhibitor cocktail (Roche, Basel, Switzerland, Cat #11873580001) and 1 mM phenylmethylsulfonyl fluoride (PMSF). […]

[3] = system: FLAG-SMO (T55A) and FLAG-SMO (T500A); test: Ubiquitination immunoprecipitation assay in A673 cells; format: cell-based, human; settings: A673 cells expressing HA-Ub; 10 μM MG132 or 100 nM bafilomycin A1 for 8 hours; FIG. 7M
Method: A673 cells stably expressing FLAG-tagged wild-type SMO, FLAG-SMO (T55A) or FLAG-SMO (T500A) were transfected with a plasmid expressing HA-tagged ubiquitin (HA-Ub; Addgene plasmid #18712 (Kamitani et al., 1997) and treated in the presence or absence of 10 μM MG132 for 8 hours or 100 nM bafilomycin A1 for 8 hours. Cell lysates were incubated with either an anti-HA magnetic beads (Sigma, Cat #SAE0197) or anti-FLAG M2 magnetic beads (Sigma, Cat #M8823), and immunoprecipitated proteins were detected using an anti-FLAG M2 (1:1500 dilution; Sigma, Cat #F1804) or anti-HA (1:1500 dilution; Cell Signaling Cat #2367) antibody.

[4] = system: FLAG-SMO (T55A) and FLAG-SMO (T500A); test: Immunoblot of FLAG-SMO mutants stably expressed in TC-71 cells; format: cell-based, human; settings: FIG. 9F
Method: as §2

[5] = system: EWSR1::FLI1; test: qRT-PCR of EWSR1::FLI1 expression in A673 cells; format: cell-based, human; settings: compound at 2.5-10 μM for 48 hours, FIGS. 6B-6C
Method: as §1
(§3) In the experiment in FIG. 5D, cells were treated with 10 μM ketoconazole (Sigma, Cat #PHR1385; CAS No. 65277-42-1) for 72 hours. Dimethyl sulfoxide (DMSO) was used as vehicle control.

[6] = system: EWSR1::FLI1; test: Immunoblot of EWSR1::FLI1 protein levels (anti-FLI1 antibody) in A673 cells; format: cell-based, human; settings: compound at 2.5-10 μM for 48 hours, FIGS. 6B-6C
Method: Cells extracts were prepared in radioimmunoprecipitation assay (RIPA) buffer (1% Triton-X100, 0.1% sodium dodecyl sulfate (SDS), 0.5% deoxycholic acid, 20 mM tris(hydroxymethyl)aminomethane (Tris), pH 7.5, 10% glycerol) containing 1× complete ethylenediaminetetraacetic acid (EDTA)-free protease inhibitor cocktail (Roche, Basel, Switzerland, Cat #11873580001) and 1 mM phenylmethylsulfonyl fluoride (PMSF). For the immunoblot in FIG. 7L, cells expressing FLAG-SMO (wild-type and mutants) were treated with 10 μM MG132 (Selleck Chemicals, Houston, TX, Cat #S2619; CAS No. 1211877-36-9) for 12 hours or 100 nM bafilomycin A1 (Selleck Chemicals, Cat #S1413; CAS No. 88899-55-2) for 6 hours. Total cell lysates (30 μg) were subjected to SDS-polyacrylamide gel electrophoresis (PAGE) and transferred to nitrocellulose membrane, which were blocked with 5% non-fat dry milk, and incubated with the following antibodies overnight at 4° C.: anti-C1GALT1 (1:1000 dilution; Santa Cruz Biotechnology, Dallas, TX, Cat #SC-100745), anti-FLI1 (1:2000 dilution; Abcam, Cambridge, United Kingdom, Cat #ab 133485), anti-EWSR1 (1:1000 dilution; Sigma Aldrich, Cat #HPA051771), anti-GLI1 (1:1000 dilution; Cell Signaling Technology, Danvers, MA, Cat #2553), anti-GLI2 (1:500 dilution; Abcam, Cat #ab187386), anti-PARP1 (1:500 dilution; Santa Cruz Biotechnology, Cat #SC-8007), anti-SMO (1:2000 dilution; Abcam, Cat #ab236465), anti-β-actin (1:2000 dilution; Sigma, Cat #A2228), anti-GAPDH (1:2000 dilution; Abcam, Cat #ab8245) or anti-FLAG M2 (1:1000 dilution; Sigma, Cat #F1804). The blots were imaged by exposing to x-ray film. The experiments were conducted three independent times, and the results from one representative experiment are shown.
as §3

[7] = system: SMO and GLI1; test: Immunoblot and qRT-PCR of SMO and GLI1 in NIH 3T3 cells; format: cell-based, mouse; settings: FIG. 7E
Method: as §1, §2

[8] = system: EWSR1::FLI1^tdTomato reporter; test: Flow cytometry of tdTomato in A673/EWSR1::FLI1^tdTomato/Cas9/EGFP reporter cells; format: cell-based, human; settings: 10 μM for 72 hours; FIG. 5D
Method: To confirm that knockdown of EWSR1::FLI1 would reduce tdTomato fluorescence, A673/EWSR1::FLI1^tdTomato cells (1×10^5 cells/well in a 6-well plate) were infected with lentiviral particles expressing a non-silencing (NS), EWSR1, or FLI1 short hairpin RNA (shRNA) (Table 3), selected with 2 μg/ml puromycin for 5 days, and analyzed by flow cytometry using a BD LSRII flow cytometer (BD Biosciences). A673/EWSR1::FLI1^tdTomato cells were then infected with lentiviral particles expressing the plasmid lentiCas9-Blast (a gift from Feng Zhang; Addgene plasmid #52962; (Sanjana et al., 2014)) and selected with 3 μg/ml blasticidin for 7 days. Cas9 activity was confirmed by transducing A673/EWSR1::FLI1^tdTomato/Cas9 cells with the lentiviral vector pXPR_011 (a gift from John Doench and David Root; Addgene plasmid #59702; (Doench et al., 2014)), which carries a puromycin resistance marker and includes an enhanced green fluorescent protein (EGFP, also referred to as GFP) reporter gene and an sgRNA sequence specifically targeting the EGFP gene, followed by selection with 2 μg/ml puromycin for 5 days and analysis of EGFP by flow cytometry. Finally, A673/EWSR1::FLI1^tdTomato/Cas9 cells were infected with lentiviral particles expressing the plasmid pLenti CMV EGFP Blast (659-1) (a gift from Eric Campeau and Paul Kaufman; Addgene plasmid #17445 (Campeau et al., 2009)). […]

[9] = target: C1GALT1 (Homo sapiens, UniProt Q9NS00); settings: previous studies (Lin et al., 2018); cited from earlier work
Chain of C1GALT1 (Q9NS00 whole entry): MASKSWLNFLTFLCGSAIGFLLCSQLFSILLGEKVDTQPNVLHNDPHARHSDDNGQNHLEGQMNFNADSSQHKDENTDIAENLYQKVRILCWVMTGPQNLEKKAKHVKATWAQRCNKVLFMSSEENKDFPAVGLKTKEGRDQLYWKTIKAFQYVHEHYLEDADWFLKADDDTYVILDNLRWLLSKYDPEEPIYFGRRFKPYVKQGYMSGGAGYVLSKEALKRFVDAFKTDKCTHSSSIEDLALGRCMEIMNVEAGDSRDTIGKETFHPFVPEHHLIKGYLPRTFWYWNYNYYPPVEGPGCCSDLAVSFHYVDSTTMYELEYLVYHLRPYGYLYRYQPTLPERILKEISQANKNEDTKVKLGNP

[10] = system: EWSR1::FLI1/ERG; test: qRT-PCR and immunoblot of EWSR1::FLI1/ERG in TC-71, TC-32 and TC-106 cells; format: cell-based, human; settings: 48 hours, FIG. 9D
[11] = Animal weight / tolerability in xenograft-bearing mice; settings: mice with TC-71, TC-32 or TC-106 xenografts; 100 mg/kg; FIG. 11G
Method: A673, TC-71, TC-106, or TC-32 cells (5×10^6) were suspended in PBS and […] ® extracellular matrix (Corning Cat #356234) in a 1:1 ratio, and subcutaneously injected into the right flank of 6-7 week old NOD scid gamma (NSG) immunocompromised mice (n=3 for each vehicle or drug treatment). Tumor dimensions were measured every 3 days with calipers, and the tumor volume was calculated using the formula volume=width^2× length/2.

CO/C1=C\C(C)=C\[C@@H](C)[C@@H](O)[C@@H](C)C/C(C)=C/C=C/[C@H](OC)[C@@H]([C@@H](C)[C@@H](O)[C@H](C)[C@@]2(O)C[C@@H](O)[C@H](C)[C@@H](C(C)C)O2)OC1=O [bafilomycin A1]
reduction in SMO levels observed upon ITZ treatment [1]: reversed
expression of SMO (T55A) and SMO (T500A) mutant proteins [2]: restored
ubiquitination of SMO (T55A) and SMO (T500A) [3]: detected
stability of O-GalNAc-glycosylation-defective SMO mutants [4]: restored

CC1=C2C[C@H]3[C@@H](CC=C4C[C@@H](O)CC[C@@]43C)[C@@H]2CC[C@]12O[C@@H]1C[C@H](C)CN[C@H]1[C@H]2C [cyclopamine]
EWSR1::FLI1 mRNA levels [5]: dose-dependent reduction
EWSR1::FLI1 protein levels [6]: dose-dependent reduction

CN(C)c1ccccc1CN1CCCN(Cc2ccccc2N(C)C)C1c1ccncc1 [GANT-61]
EWSR1::FLI1 mRNA levels [5]: dose-dependent reduction
EWSR1::FLI1 protein levels [6]: dose-dependent reduction

CNC1CCC(N(Cc2cccc(-c3ccncc3)c2)C(=O)c2sc3ccccc3c2Cl)CC1.Cl (stereo not shown) [SAG, Smoothened Agonist hydrochloride]
EWSR1::FLI1 mRNA levels [5]: dose-dependent increase
EWSR1::FLI1 protein levels [6]: dose-dependent increase
levels of SMO and GLI1 [7]: increased levels

CC(=O)N1CCN(c2ccc(OCC3COC(Cn4ccnc4)(c4ccc(Cl)cc4Cl)O3)cc2)CC1 (stereo not shown) [ketoconazole]
EWSR1::FLI1 expression (EWSR1::FLI1^tdTomato reporter) [8]: does not reduce; also recorded: no effect; also recorded: did not result in reduced
inhibition of C1GALT1 [9]: not to inhibit; also recorded: does not inhibit

CCC(C)n1ncn(-c2ccc(N3CCN(c4ccc(OCC5COC(Cn6cncn6)(c6ccc(Cl)cc6Cl)O5)cc4)CC3)cc2)c1=O (stereo not shown) [ITZ, itraconazole]
EWSR1::FLI1/ERG expression [10]: reduced
animal weight [11]: absence of weight loss

CC(C)C[C@@H](C=O)NC(=O)[C@H](CC(C)C)NC(=O)[C@H](CC(C)C)NC(=O)OCc1ccccc1 [MG132] (Cbz-Leu-Leu-Leu-aldehyde)
reduction in SMO levels observed upon ITZ treatment [1]: reversed
expression of SMO (T55A) and SMO (T500A) mutant proteins [2]: restored
ubiquitination of SMO (T55A) and SMO (T500A) [3]: detected
stability of O-GalNAc-glycosylation-defective SMO mutants [4]: restored
